Experiments:
KHYG-1 (IL-2 2.5 ng/mL) [1] = experiment: drug sensitivity score (DSS) (DSS units); higher = more sensitive; extreme values may be limits of the assay; settings: 72 h
[2] = tested on: normal primary NK cells, pool 1 (3 donors), resting (IL-2 0 ng/mL); experiment: as above; settings: 72 h
NK-YS (IL-2 2.5 ng/mL) [3] = experiment: as above; settings: 72 h
DERL-7 (IL-2 2.5 ng/mL) [4] = experiment: as above; settings: 72 h
[5] = tested on: normal primary NK cells, pool 1 (3 donors) (IL-2 2.5 ng/mL); experiment: as above; settings: 72 h
NKL (IL-2 2.5 ng/mL) [6] = experiment: as above; settings: 72 h
KAI3 (IL-2 2.5 ng/mL) [7] = experiment: as above; settings: 72 h
NK-92 (IL-2 2.5 ng/mL) [8] = experiment: as above; settings: 72 h
SNK-6 (IL-2 2.5 ng/mL) [9] = experiment: as above; settings: 72 h
YT (IL-2 2.5 ng/mL) [10] = experiment: as above; settings: 72 h
KHYG-1 (IL-2 2.5 ng/mL) [11] = experiment: percent inhibition of viability; higher = more inhibition; settings: 72 h
[12] = tested on: normal primary NK cells, pool 1 (3 donors), resting (IL-2 0 ng/mL); experiment: as above; settings: 72 h
NK-YS (IL-2 2.5 ng/mL) [13] = experiment: as above; settings: 72 h
DERL-7 (IL-2 2.5 ng/mL) [14] = experiment: as above; settings: 72 h
[15] = tested on: normal primary NK cells, pool 1 (3 donors) (IL-2 2.5 ng/mL); experiment: as above; settings: 72 h
NKL (IL-2 2.5 ng/mL) [16] = experiment: as above; settings: 72 h
KAI3 (IL-2 2.5 ng/mL) [17] = experiment: as above; settings: 72 h
NK-92 (IL-2 2.5 ng/mL) [18] = experiment: as above; settings: 72 h
SNK-6 (IL-2 2.5 ng/mL) [19] = experiment: as above; settings: 72 h
YT (IL-2 2.5 ng/mL) [20] = experiment: as above; settings: 72 h
IMC-1 (IL-2 20 ng/mL) [21] = experiment: drug sensitivity score (DSS) (DSS units); higher = more sensitive; extreme values may be limits of the assay; settings: 72 h
[22] = tested on: normal primary NK cells, pool 3 (3 donors) (IL-2 2.5 ng/mL); experiment: as above; settings: 72 h
[23] = tested on: normal primary NK cells, pool 2 (3 donors) (IL-2 2.5 ng/mL); experiment: as above; settings: 72 h
[24] = tested on: normal NK cells expanded with K562-aAPC; experiment: as above; settings: 72 h; IL-2 2.5 ng/mL
Protocol: (§1)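 Drug sensitivity and resistance testing on K562-aAPC-expanded normal NK cells: 5 concentrations (10-fold steps over a 10,000-fold range), 72 h at 37 °C, viability by CellTiter-Glo normalised to DMSO and benzethonium chloride controls; DSS from the fitted curve.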

[25] = tested on: normal NK cells expanded with K562-aAPC; experiment: percent inhibition of viability; higher = more inhibition; settings: 72 h, IL-2 2.5 ng/mL
Protocol: as §1

IMC-1 (IL-2 20 ng/mL) [26] = experiment: as above; settings: 72 h
[27] = tested on: normal primary NK cells, pool 3 (3 donors) (IL-2 2.5 ng/mL); experiment: as above; settings: 72 h
[28] = tested on: normal primary NK cells, pool 2 (3 donors) (IL-2 2.5 ng/mL); experiment: as above; settings: 72 h

Cc1cnc(Nc2ccc(OCCN3CCCC3)cc2)nc1Nc1cccc(S(=O)(=O)NC(C)(C)C)c1 (max concentration tested 10000 nM)
Settings | drug sensitivity score
DERL-7 (IL-2 2.5 ng/mL) [4] | 18.8
KAI3 (IL-2 2.5 ng/mL) [7] | 19.8
KHYG-1 (IL-2 2.5 ng/mL) [1] | 19
NK-92 (IL-2 2.5 ng/mL) [8] | 10.2
NK-YS (IL-2 2.5 ng/mL) [3] | 14.6
NKL (IL-2 2.5 ng/mL) [6] | 22.6
SNK-6 (IL-2 2.5 ng/mL) [9] | 12.4
YT (IL-2 2.5 ng/mL) [10] | 11.8
[2] | 12.3
[5] | 18.2

percent inhibition of viability [%]
Settings | DERL-7 (IL-2 2.5 ng/mL) [14] | KAI3 (IL-2 2.5 ng/mL) [17] | KHYG-1 (IL-2 2.5 ng/mL) [11] | NK-92 (IL-2 2.5 ng/mL) [18] | NK-YS (IL-2 2.5 ng/mL) [13] | NKL (IL-2 2.5 ng/mL) [16] | SNK-6 (IL-2 2.5 ng/mL) [19] | YT (IL-2 2.5 ng/mL) [20] | [12] | [15]
1 nM | 2.35 | -2.12 | -4.97 | -22 | -4.69 | -6.46 | -5 | -4.96 | -0.59 | 2.15
10 nM | 0.3 | 8.65 | -1.52 | -8.95 | 1.18 | 3.43 | -10.1 | -1.05 | 16 | 0.15
100 nM | 26.8 | 26.5 | 7.04 | -15.3 | 10.9 | 50.6 | -13.7 | 6.19 | 14.1 | 24.1
1000 nM | 84.8 | 90.3 | 99.4 | 33 | 68.9 | 83.5 | 58.4 | 51.3 | 51.8 | 83
10000 nM | 101 | 108 | 108 | 106 | 108 | 109 | 101 | 107 | 96.5 | 99.8

Cc1sc2c(c1C)C(c1ccc(Cl)cc1)=N[C@@H](CC(=O)OC(C)(C)C)c1nnc(C)n1-2 [(+)JQ1] (max concentration tested 10000 nM)
Settings | drug sensitivity score
DERL-7 (IL-2 2.5 ng/mL) [4] | 24.3
KAI3 (IL-2 2.5 ng/mL) [7] | 9.24
KHYG-1 (IL-2 2.5 ng/mL) [1] | 19.9
NK-92 (IL-2 2.5 ng/mL) [8] | 4.26
NK-YS (IL-2 2.5 ng/mL) [3] | 13.9
NKL (IL-2 2.5 ng/mL) [6] | 16.6
SNK-6 (IL-2 2.5 ng/mL) [9] | 15
YT (IL-2 2.5 ng/mL) [10] | 11.7
[2] | 8.55
[5] | 12.1

percent inhibition of viability [%]
Settings | DERL-7 (IL-2 2.5 ng/mL) [14] | KAI3 (IL-2 2.5 ng/mL) [17] | KHYG-1 (IL-2 2.5 ng/mL) [11] | NK-92 (IL-2 2.5 ng/mL) [18] | NK-YS (IL-2 2.5 ng/mL) [13] | NKL (IL-2 2.5 ng/mL) [16] | SNK-6 (IL-2 2.5 ng/mL) [19] | YT (IL-2 2.5 ng/mL) [20] | [12] | [15]
1 nM | 3.63 | -7.52 | -9.07 | -5.26 | -10.6 | -9.69 | -15.8 | 1.34 | -3.74 | 1.42
10 nM | 11.6 | -10.2 | -3.7 | -16.7 | -2.12 | -1.54 | -1.34 | -1.16 | -13 | 1.32
100 nM | 54.6 | 3.52 | 24.7 | -31.8 | 19.8 | 29.4 | 12.2 | 8.16 | -3.42 | 9.32
1000 nM | 96.1 | 47.9 | 89.8 | 22.2 | 62.4 | 69 | 71.4 | 56.7 | 34 | 56.9
10000 nM | 98.5 | 53.6 | 92.7 | 35.5 | 73.2 | 60.9 | 74.2 | 59.4 | 74.8 | 84.1

O=C(O)C1(C(=O)O)CCC1.[NH2-].[NH2-].[Pt+2] [Carboplatin] (max concentration tested 100000 nM)
Settings | drug sensitivity score
IMC-1 (IL-2 20 ng/mL) [21] | 12.8
[22] | 5.79
[23] | 5.27
[24] | 8.66

percent inhibition of viability [%]
Settings | 10 nM | 100 nM | 1000 nM | 10000 nM | 100000 nM
IMC-1 (IL-2 20 ng/mL) [26] | -6.21 | -0.67 | 1.27 | 61.7 | 100
[25] | -8.39 | -5.27 | 0.62 | 19.3 | 100
[27] | -8.77 | -1.51 | 10.8 | 18.1 | 64.7
[28] | 1.54 | -0.94 | 13 | 16.1 | 60.8

C[C@]12CC[C@@H]3c4ccc(OC(=O)N(CCCl)CCCl)cc4CC[C@H]3[C@@H]1CC[C@@H]2O [Estramustine] (max concentration tested 10000 nM)
Settings | drug sensitivity score
IMC-1 (IL-2 20 ng/mL) [21] | 0
[22] | 0
[23] | 0
[24] | 0

percent inhibition of viability [%]
Settings | 1 nM | 10 nM | 100 nM | 1000 nM | 10000 nM
IMC-1 (IL-2 20 ng/mL) [26] | -0.43 | -1.35 | -3.43 | -6.09 | -6.87
[25] | -5.93 | -3.58 | -7.28 | -7.29 | -6.53
[27] | -8.4 | -4.19 | -7.49 | -10.1 | -9.53
[28] | 10 | -2.77 | -6.62 | -4.76 | -8.48

Cc1cnc(Nc2ccc(OCCN3CCCC3)cc2)nc1Nc1cccc(S(=O)(=O)NC(C)(C)C)c1 [Fedratinib] (max concentration tested 10000 nM)
Settings | drug sensitivity score
IMC-1 (IL-2 20 ng/mL) [21] | 12.1
[22] | 14.9
[23] | 15.3
[24] | 15.3

percent inhibition of viability [%]
Settings | 1 nM | 10 nM | 100 nM | 1000 nM | 10000 nM
IMC-1 (IL-2 20 ng/mL) [26] | -6.81 | -6.37 | -28.8 | 55 | 101
[25] | -1.65 | -2.82 | 11.2 | 73.8 | 101
[27] | -3.74 | -2.87 | 15.8 | 68.8 | 100
[28] | -1.22 | -4.41 | 13.2 | 72.5 | 100

From the supplement of paper PMC5908809
